Marks after values point to notes of the source that are not given here.

Assay [1] has as its system carboxyl terminal fragment AβPP (C99). The assay can be described thus: AD-related markers in Tg2576 neurons: APP processing (C99). In kind it is cell-based, mouse. Conditions: Tg2576 primary neurons, compound concentration 50 nM. The procedure: The effects of the compounds on amyloid pathology were analysed in primary cultures after 21 days in-vitro (DIV) of neurons derived from the hippocampus and cortex of Tg2576 mouse embryos. Tg2576 mice express the human 695-aa isoform of APP (hAPP) containing the Swedish double mutation, which favours A3 production. Neurons were treated for two days and collected at day 3, 24 h after the last treatment. First it was analysed the effect of the compounds on hAPP processing by the amyloidogenic pathway by measuring the carboxyl terminal fragment AβPP (C99), which is the precursor of Aβ42. In this case the reported EC50, Table 2 (below), means a 50% decrease in C99 levels over basal (vehicle, no treatment).
To analyze APP-derived fragments and p-Tau levels in primary neuronal cultures, cells were collected in a buffer containing SDS (2%), Tris-HCl (10 mM, pH 7.4), protease inhibitors (1 mM phenylmethylsulfonyl fluoride (PMSF) and Complete Protease Inhibitor Cocktail: Roche Diagnostics) and phosphatase inhibitors (0.1 mM Na3VO4 and 1 mM NaF). The homogenates were sonicated for 2 min and centrifuged at 100,000×g for 1 h. Aliquots of the supernatant were frozen at […] and their protein concentrations determined by the Bradford method using the Bio-Rad protein assay (Bio-Rad, Hercules, Calif., USA). […]

In assay [2] the test system is phosphorylated tau (p-Tau). In words: AD-related markers in Tg2576 neurons: pTau. In kind it is cell-based, mouse. Conditions: Tg2576 primary neurons, compound concentration 50 nM. The procedure: The effects of the compounds on amyloid pathology were analysed in primary cultures after 21 days in-vitro (DIV) of neurons derived from the hippocampus and cortex of Tg2576 mouse embryos. Tg2576 mice express the human 695-aa isoform of APP (hAPP) containing the Swedish double mutation, which favours A3 production. Neurons were treated for two days and collected at day 3, 24 h after the last treatment. First it was analysed the effect of the compounds on hAPP processing by the amyloidogenic pathway by measuring the carboxyl terminal fragment AβPP (C99), which is the precursor of Aβ42. […]
It was next analyzed the effect of the compounds on levels of phosphorylated tau (p-Tau) in the same samples, another marker of AD, using a phospho-specific antibody (AT8) that recognizes hyperphosphorylated epitopes on Ser202/Thr205. […]
To analyze APP-derived fragments and p-Tau levels in primary neuronal cultures, cells were collected in a buffer containing SDS (2%), Tris-HCl (10 mM, pH 7.4), protease inhibitors (1 mM phenylmethylsulfonyl fluoride (PMSF) and Complete Protease Inhibitor Cocktail: Roche Diagnostics) and phosphatase inhibitors (0.1 mM Na3VO4 and 1 mM NaF). […] Aliquots of the supernatant were frozen at […] and their protein concentrations determined by the Bradford method using the Bio-Rad protein assay (Bio-Rad, Hercules, Calif., USA). […]

The subject of a further assay is aged-Tg2576 mice. The assay can be described thus: Memory function in aged-Tg2576 mice: Fear Conditioning (FC). In kind it is in vivo. Conditions: Tg2576 mice (16-18 month), chronic treatment 3-5 weeks, 20 mg/Kg i.p.; standard error in brackets. The procedure:
The effect on memory function of compounds of the invention was studied in Tg2576 mice (16-18 month) after a chronic treatment of 3-5 weeks by using two different behavioral tasks: the Fear Conditioning (FC) and the Morris water maze (MWM) test, Table 5 (below)
The behavioural procedure of FC task involved three phases: habituation, training and testing. During habituation phase, mice were habituated to the conditioning box (context) for 5 min with no stimuli presented. 24 hours later (training phase), mice were placed in the training chamber and allowed to explore for 2 min, afterward, a footshock (0.3 mA) unconditioned stimulus was administered (2 s) and 30 s after mice were returned to their home cage. Mice were returned to the conditioning chamber 24 h after training and allowed to explore the context for 2 min, during which freezing behavior was recorded (contextual long term memory). Freezing scores were expressed as percentages. The conditioning procedure was carried out in a StartFear system (Panlab S.L., Barcelona, Spain) that allows recording and analysis of the signal generated by the animal movement through a high sensitivity Weight Transducer system. The analogical signal is transmitted to the FREEZING and STARTLE software modulated through the load cell unit for recording purposes and posterior analysis in terms of activity/immobility.

As for `CCCc1nn(C)c2c(=O)[nH]c(-c3cc(Cc4ccc(C(=O)Nc5ccccc5N)cc4)ccc3OCC)nc12` [Example 1-11, N-(2-aminophenyl)-4-[[4-ethoxy-3-(1-methyl-7-oxo-3-propyl-6H-pyrazolo[4,3-d]pyrimidin-5-yl)phenyl]methyl]benzamide], the “decrease in C99 levels over basal” value in assay [1] was “++ (basal x0.2≤(++)<basal x0.4 (reduction between 20% and 40%))”. Further, the “decrease in pTau levels over basal” value in assay [2] is “++ (basal x0.2≤(++)<basal x0.4 (reduction between 20% and 40%))”. Also, the “FC (% freezing)” value with aged-Tg2576 mice was 59.65 (9.2)^c %.

These data come from patent US9969744B2, “Compounds for use in cognition improvement” (FUNDACIÓN PARA LA INVESTIGACIÓN MÉDICA APLICADA, priority 2014, dated 2018).
